Measured values reported in patent publication US5403824A, “Methods for the treatment of osteoporosis” (The Procter & Gamble Company, priority 1993, dated 1995).

System: enkephalinase
Test: enkephalinase inhibition, cleavage of N-suc-Ala-Ala-Phe-AMC by osteoblast-like cells, fluorescence
Type: biochemical, rat or mouse
Details: substrate N-succinyl-alanyl-alanylphenylalanyl-7-amido-4-methyl coumarin, 37° C., one hr
From the text: One such model is described by Spillantini et al., 12 Eur. J. Pharmacol 142-150 (1986), which has been modified by Applicants. (Applicants' modification consists of using osteoblast-like cells, rather than human serum, as the source of enkephalin-degrading enzymes.) This model measures inhibition of the enkephalin-degrading enzyme "enkephalinase". According to Applicants' modified method, the source of the enkephalin-degrading enzymes i s rat osteoblast-like cells or mouse osteoblast-like cells (MC3T3-E1 cells). The substrate used is N-succinyl-alanyl-alanyl-phenylalanyl-7-amido-4-methyl coumarin (hereafter N-suc-Ala-Ala-Phe-AMC), which is known to be cleaved at the Ala-Phe peptide bond by enkephalinase. […] Aminopeptidase, which is known to specifically cleave only Phe-AMC (at the Phe-AM(peptide bond), is then added to the sample. Cleavage by aminopeptidase yields the metabolites AMC (fluorescent) and Phe. Fluorescence is then measured and is directly proportional to the amount of substrate degraded by enkephalinase.
Specifically, a test sample (containing enzyme and a putative enkephalinase inhibitor) and a control sample (containing only enzyme) are equilibrated. A quantified amount of substrate is then added to both samples. […] Fluorescence of the samples is then measured, greater fluorescence corresponding to greater degradation of the substrate by enkephalinase. […]

Compound: O=C(O)CNC(=O)C(CS)Cc1ccccc1 (racemic) [DL-3-mercapto-2-benzyl-propanoylglycine]
- inhibition of substrate degradation by enkephalinase (fluorescence vs control): significantly inhibited substrate degradation by enkephalinase
